≈ marks a conversion by molar mass, not a printed value. Where “and” joins values, the source holds several entries; their conditions need not be identical. Equal values may be shown once.
What was measured:
Neurospora crassa = assay: Disc-diffusion, zone of inhibition; assay type: cell-based; conditions: 6-mm pads dipped in 1 mg/ml
Protocol: (§1) The inhibitory activity of A80190 is illustrated in Table VI. Activity was measured by the conventional disc-diffusion method (6-mm pads were dipped in solutions containing 1 mg of compound per ml of solution; pads were placed on agar plates seeded with test organism).

[1] = tested on: Saccharomyces pastorianus; assay: Disc-diffusion, zone of inhibition; assay type: cell-based; conditions: 6-mm pads dipped in 1 mg/ml
Protocol: as §1

Bacillus subtilis = assay: Disc-diffusion, zone of inhibition; assay type: cell-based; conditions: 6-mm pads dipped in 1 mg/ml
Protocol: as §1

Staphylococcus aureus = assay: Disc-diffusion, zone of inhibition; assay type: cell-based; conditions: 6-mm pads dipped in 1 mg/ml
Protocol: as §1

Mycobacterium avium = assay: Disc-diffusion, zone of inhibition; assay type: cell-based; conditions: 6-mm pads dipped in 1 mg/ml
Protocol: as §1

Candida albicans = assay: Disc-diffusion, zone of inhibition; assay type: cell-based; conditions: 6-mm pads dipped in 1 mg/ml
Protocol: as §1

Micrococcus luteus = assay: Disc-diffusion, zone of inhibition; assay type: cell-based; conditions: 6-mm pads dipped in 1 mg/ml
Protocol: as §1

[2] = tested on: Peptostreptococcus intermedius 1624; assay: Agar-dilution MIC, anaerobic bacteria; assay type: cell-based; conditions: 24-hour incubation
[3] = tested on: Peptococcus asaccharolyticus 1302; assay: Agar-dilution MIC, anaerobic bacteria; assay type: cell-based; conditions: 24-hour incubation
crabgrass = assay: Herbicidal activity; assay type: in vivo; conditions: 200 gpa; either pre-emergence or post-emergence
[4] = tested on: volatile-fatty-acid (VFA) production, rumen; assay: Ruminant feed-utilization efficiency, VFA ratio treated/control flasks
Excerpt: The efficiency of feed use can be monitored by observing the production and concentration of propionate compounds in the rumen using the method described by Arthur P. Raun in U.S. Pat. No. 3,794,732 (see especially Example 5).

[5] = tested on: Propionibacterium acnes 79; assay: Agar-dilution MIC, anaerobic bacteria; assay type: cell-based; conditions: 24-hour incubation
[6] = tested on: Fusobacterium necrophorum 6054A; assay: Agar-dilution MIC, anaerobic bacteria; assay type: cell-based; conditions: 24-hour incubation
[7] = pKa in 66% aqueous dimethylformamide; assay type: physicochemical
Excerpt: (§2) Antibiotic A80190 has been assigned structure 1 based on X-ray crystallographic studies. A80190 (in its free acid form) has the following characteristics: […]

two-spotted spider mite = assay: Acaricidal activity; conditions: in vivo
Caenorhabditis elegans = assay: Anthelmintic activity; conditions: in vivo
pigweed = assay: Herbicidal activity; assay type: in vivo; conditions: 200 gpa; either pre-emergence or post-emergence
[8] = tested on: Fusobacterium symbiosum 1470; assay: Agar-dilution MIC, anaerobic bacteria; assay type: cell-based; conditions: 24-hour incubation
[9] = tested on: Peptostreptococcus anaerobius 1428; assay: Agar-dilution MIC, anaerobic bacteria; assay type: cell-based; conditions: 24-hour incubation
mosquito larvae = assay: Insecticidal activity; conditions: in vivo
adult housefly = assay: Insecticidal activity; conditions: in vivo
Mexican bean beetle = assay: Insecticidal activity; conditions: in vivo
Solubility = assay type: physicochemical
Excerpt: as §2

southern armyworm = assay: Insecticidal activity; conditions: in vivo
blowfly larvae = assay: Insecticidal activity; conditions: in vivo
[10] = tested on: Eubacterium aerofaciens 1235; assay: Agar-dilution MIC, anaerobic bacteria; assay type: cell-based; conditions: 24-hour incubation
[11] = tested on: natural and artificial membranes; assay: Cation permeability of membranes
[12] = Ionophorous (ion-transport) activity with cations
Treponema hyodysenteriae = assay: Growth inhibition, swine dysentery agent; assay type: cell-based
Petococcus prevoti 1281 = assay: Agar-dilution MIC, anaerobic bacteria; assay type: cell-based; conditions: 24-hour incubation
[13] = tested on: Bacteroides vulgatis 1211; assay: Agar-dilution MIC, anaerobic bacteria; assay type: cell-based; conditions: 24-hour incubation
[14] = tested on: Bacteroides corrodens 1874; assay: Agar-dilution MIC, anaerobic bacteria; assay type: cell-based; conditions: 24-hour incubation
Protocol: (§3) One important aspect of the antimicrobial activity of A80190 compounds relates to their activity against anaerobic bacteria. The minimal inhibitory concentrations (MIC's) at which A80190 inhibits various anaerobic bacteria, as determined by standard agar-dilution assay, are summarized in Table VII. End points were read after 24-hour incubation.

[15] = tested on: Clostridium septicum 1128; assay: Agar-dilution MIC, anaerobic bacteria; assay type: cell-based; conditions: 24-hour incubation
Protocol: as §3

Bacteroides fragilis 111 = assay: Agar-dilution MIC, anaerobic bacteria; assay type: cell-based; conditions: 24-hour incubation
Protocol: as §3

[16] = tested on: Bacteroides fragilis 1936B; assay: Agar-dilution MIC, anaerobic bacteria; assay type: cell-based; conditions: 24-hour incubation
Protocol: as §3

[17] = tested on: Clostridium difficile 2994; assay: Agar-dilution MIC, anaerobic bacteria; assay type: cell-based; conditions: 24-hour incubation
Protocol: as §3

[18] = tested on: Bacteroides thetaiotaomicron 1438; assay: Agar-dilution MIC, anaerobic bacteria; assay type: cell-based; conditions: 24-hour incubation
Protocol: as §3

[19] = tested on: Bacteroides melaninogenicus 1856/28; assay: Agar-dilution MIC, anaerobic bacteria; assay type: cell-based; conditions: 24-hour incubation
Protocol: as §3

[20] = tested on: Bacteroides melaninogenicus 2736; assay: Agar-dilution MIC, anaerobic bacteria; assay type: cell-based; conditions: 24-hour incubation
Protocol: as §3

[21] = tested on: Bacteroides fragilis 1877; assay: Agar-dilution MIC, anaerobic bacteria; assay type: cell-based; conditions: 24-hour incubation
Protocol: as §3

[22] = tested on: Clostridium perfringens 81; assay type: cell-based; conditions: 24-hour incubation
mitochondrial ATPase = assay: Inhibition of mitochondrial ATPase in vitro; assay type: biochemical
Excerpt: In yet another aspect, the A80190 compounds are active as inhibitors of the enzyme ATPase. ATPase, an alkali-metal-sensitive enzyme found in cell membranes, is involved in the energy necessary for active transport. "Active transport" refers to the energy requiring series of operations whereby intracellular and extracellular fluids maintain their compositions. Inhibitors of ATPase reduce the energy required for active transport. In vitro tests have shown that A80190 inhibits mitochondrial ATPase with a half-effective concentration (IC50) of 0.5 μg/ml.

Eimeria tenella = assay: In vitro tissue culture screen, anticoccidial; assay type: cell-based; set-up: key: C: cytotoxic; A: active; S: slightly active; N: not active
Excerpt: Anticoccidial activity is an important property of the A80190 compounds. Table VIII summarizes the results of an in vitro tissue culture screen of A-80190 compounds vs. Eimeria tenella.

Polio III virus = assay type: cell-based; conditions: tissue culture
mustard = assay: Herbicidal activity; assay type: in vivo; conditions: 200 gpa; either pre-emergence or post-emergence
A. macra = assay: Resistance to antibiotics, sensitivity discs on seeded agar; assay type: cell-based, Actinomadura macra
Protocol: (§4) Resistance to antibiotics was measured by padding antibiotic sensitivity discs onto the surface of seeded ISP No. 2 agar plates.
(§5) Table III lists the resistance of the strain to various antibiotics at the concentrations indicated and compares it to that of A. macra.

NRRL 15878 = assay: as above; assay type: cell-based, Actinomadura oligospora
Protocol: as §4, §5

CC[C@@H](O)[C@]1(C)C[C@H](C)[C@@](O)([C@H]2C[C@H](C)[C@H]([C@]3(C)C[C@@H](O[C@H]4CC[C@H](OC)[C@@H](C)O4)[C@H]([C@@H]4CC[C@@]5(O[C@H]([C@@H](C)[C@@H](OC)[C@H](C)C(=O)O)[C@H](C)[C@@H](OC)[C@H]5C)O4)O3)O2)O1 [A80190]
Zone of Inhibition (Neurospora crassa): 14 mm diameter | Zone of Inhibition [1]: 10 mm diameter | Zone of Inhibition (Bacillus subtilis): 23 mm diameter | Zone of Inhibition (Staphylococcus aureus): 17 mm diameter | Zone of Inhibition (Mycobacterium avium): 21 mm diameter | Zone of Inhibition (Candida albicans): 14 mm diameter | Zone of Inhibition (Micrococcus luteus): 20 mm diameter | MIC [2]: 1 µg/mL (≈ 1.21 µM) | MIC [3]: 1 µg/mL (≈ 1.21 µM) | active at (application rate) (crabgrass): 2 lb/acre | Molar % Acetate (ratio treated/control) ([4]; 0.3 mcg/ml): 0.970 | Molar % Butyrate (ratio treated/control) ([4]; 0.3 mcg/ml): 0.819 | Molar % Propionate (ratio treated/control) ([4]; 0.3 mcg/ml): 1.220 | Total VFA/Control VFA ([4]; 0.3 mcg/ml): 0.967 mM/L | Molar % Acetate (ratio treated/control) ([4]; 1 mcg/ml): 0.986 and 0.892 and 1.016 and 0.926 | Molar % Butyrate (ratio treated/control) ([4]; 1 mcg/ml): 0.851 and 0.813 and 0.706 and 0.529 | Molar % Propionate (ratio treated/control) ([4]; 1 mcg/ml): 1.185 and 1.403 and 1.247 and 1.566 | Total VFA/Control VFA ([4]; 1 mcg/ml): 0.916 mM/L and 0.887 mM/L and 0.857 mM/L and 0.913 mM/L | Molar % Acetate (ratio treated/control) ([4]; 3 mcg/ml): 0.998 | Molar % Butyrate (ratio treated/control) ([4]; 3 mcg/ml): 0.611 | Molar % Propionate (ratio treated/control) ([4]; 3 mcg/ml): 1.368 | Total VFA/Control VFA ([4]; 3 mcg/ml): 0.963 mM/L | MIC [5]: 1 µg/mL (≈ 1.21 µM) | MIC [6]: 16 µg/mL (≈ 19.3 µM) | pKa [7]: 6.2 | active when applied at a rate as low as (two-spotted spider mite): 25 ppm | active at levels as low as (Caenorhabditis elegans): 20 ppm | active at (application rate) (pigweed): 2 lb/acre | MIC [8]: 8 µg/mL (≈ 9.65 µM) | MIC [9]: 1 µg/mL (≈ 1.21 µM) | active at levels as low as (mosquito larvae): < 50 ppm | active at levels as low as (adult housefly): 35 ppm | active at levels as low as (Mexican bean beetle): < 100 ppm | Solubility (Solubility; organic solvents): soluble in lower alcohols such as methanol, ketones such as acetone, esters such as ethyl acetate, halogenated hydrocarbons such as chloroform and hydrocarbons such as diethyl ether, benezene, toluene and warm hexane | Solubility (Solubility; water): Insoluble in water | active at levels as low as (southern armyworm): < 100 ppm | active at levels as low as (blowfly larvae): 35 ppm | MIC [10]: < 0.5 µg/mL | cation permeability [11]: alters the cation permeability of both natural and artificial membranes | ionophorous effect, cation preference ([12]; 0.2 μg/ml, Cs+ vs Na+): even greater ionophorous effect with Cs^+ than with Na^+ as cation | ionophorous activity ([12]; 0.5 μg/ml): showed ionophorous activity | ionophorous activity, cation preference ([12]; 0.5 μg/ml, Na+, K+ and Rb+ vs Cs+ or Li+): activity with Na^+, K^+ and Rb^+ was better than that with Cs^+ or Li^+ | inhibits the growth at levels as low as (Treponema hyodysenteriae): 0.39 µg/mL | MIC (Petococcus prevoti 1281): < 0.5 µg/mL | MIC [13]: 16 µg/mL (≈ 19.3 µM) | MIC [14]: > 128 µg/mL | MIC [15]: < 0.5 µg/mL | MIC (Bacteroides fragilis 111): > 128 µg/mL | MIC [16]: > 128 µg/mL | MIC [17]: < 0.5 µg/mL | MIC [18]: > 128 µg/mL | MIC [19]: > 128 µg/mL | MIC [20]: > 128 µg/mL | MIC [21]: > 128 µg/mL | MIC [22]: < 0.5 µg/mL | half-effective concentration (IC50) (mitochondrial ATPase): 0.5 µg/mL | Activity vs. Eimeria tenella In Vitro (Eimeria tenella; 0.008 μg/ml): A | Activity vs. Eimeria tenella In Vitro (Eimeria tenella; 0.04 μg/ml): A | Activity vs. Eimeria tenella In Vitro (Eimeria tenella; 0.2 μg/ml): A | Activity vs. Eimeria tenella In Vitro (Eimeria tenella; 1 μg/ml): C | Activity vs. Eimeria tenella In Vitro (Eimeria tenella; 5 μg/ml): C | active at a level of (Polio III virus): 2000 µg/mL | active at (application rate) (mustard): 2 lb/acre

CCC[C@@H]1C[C@@H](C(=O)N[C@@H]([C@H]2O[C@H](SC)[C@H](O)[C@@H](O)[C@H]2O)[C@@H](C)O)N(C)C1 [Lincomycin]
Resistance to Antibiotics (A. macra; 2 μg): +

NC[C@@H]1O[C@H](O[C@H]2[C@@H](O)[C@H](O[C@@H]3[C@@H](O)[C@H](N)C[C@H](N)[C@H]3O[C@H]3O[C@H](CN)[C@@H](O)[C@H](O)[C@H]3N)O[C@@H]2CO)[C@H](N)[C@@H](O)[C@@H]1O [Neomycin]
Resistance to Antibiotics (NRRL 15878; 30 μg): - | Resistance to Antibiotics (A. macra; 30 μg): -

NC[C@H]1O[C@H](O[C@H]2[C@H](O)[C@@H](O[C@H]3O[C@H](CO)[C@@H](O)[C@H](N)[C@H]3O)[C@H](N)C[C@@H]2N)[C@H](N)C[C@@H]1O [Tobramycin]
Resistance to Antibiotics (A. macra; 10 μg): -

Oleandomycin
Resistance to Antibiotics (NRRL 15878; 15 μg): -
